From PubChem BioAssay (NCI)
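Following 48 hours of exposure in 96-well plates, responses at five concentrations were used to interpolate endpoints linearly. GI50 is the concentration that inhibits growth by half. TGI marks complete inhibition of growth.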

Columns and labels:
Assay in all cases: growth of human tumour cells (NCI), 48 h
HL-60(TB) leukemia = tested on: HL-60(TB) leukemia
COLO 205 colon = tested on: COLO 205 colon
SF-268 CNS = tested on: SF-268 CNS
T-47D breast = tested on: T-47D breast
NCI-H522 lung = tested on: NCI-H522 lung
SNB-75 CNS = tested on: SNB-75 CNS
OVCAR-8 ovarian = tested on: OVCAR-8 ovarian
NCI-H23 lung = tested on: NCI-H23 lung
A498 renal = tested on: A498 renal
NCI/ADR-RES ovarian = tested on: NCI/ADR-RES ovarian
DU-145 prostate = tested on: DU-145 prostate
M14 melanoma = tested on: M14 melanoma
CAKI-1 renal = tested on: CAKI-1 renal
OVCAR-4 ovarian = tested on: OVCAR-4 ovarian
UACC-257 melanoma = tested on: UACC-257 melanoma
NCI-H226 lung = tested on: NCI-H226 lung
TK-10 renal = tested on: TK-10 renal
MCF7 breast = tested on: MCF7 breast
A549 NSCLC = tested on: A549 NSCLC
IGROV1 ovarian = tested on: IGROV1 ovarian
OVCAR-5 ovarian = tested on: OVCAR-5 ovarian
SNB-19 CNS = tested on: SNB-19 CNS
OVCAR-3 ovarian = tested on: OVCAR-3 ovarian
MDA-MB-231 breast = tested on: MDA-MB-231 breast
MDA-MB-435 = tested on: MDA-MB-435
ACHN renal = tested on: ACHN renal
UACC-62 melanoma = tested on: UACC-62 melanoma
UO-31 renal = tested on: UO-31 renal
NCI-H460 lung = tested on: NCI-H460 lung

CC(C)c1ccc(NC(=O)Cc2ccc(Nc3ncnc4cc(-c5cnn(CCN(C)C)c5)ccc34)cc2)cc1
GI50 (HL-60(TB) leukemia): 2840 nM
TGI (HL-60(TB) leukemia): > 10000 nM
GI50 (COLO 205 colon): 218 nM
TGI (COLO 205 colon): 1830 nM
GI50 (SF-268 CNS): 1320 nM
TGI (SF-268 CNS): 3090 nM
GI50 (T-47D breast): 1380 nM
TGI (T-47D breast): 3730 nM
GI50 (NCI-H522 lung): 1560 nM
TGI (NCI-H522 lung): 3940 nM
GI50 (SNB-75 CNS): 162 nM
TGI (SNB-75 CNS): 2030 nM
GI50 (OVCAR-8 ovarian): 1290 nM
TGI (OVCAR-8 ovarian): 3540 nM
GI50 (NCI-H23 lung): 4140 nM
TGI (NCI-H23 lung): > 10000 nM
GI50 (A498 renal): 128 nM
TGI (A498 renal): > 10000 nM
GI50 (NCI/ADR-RES ovarian): > 10000 nM
TGI (NCI/ADR-RES ovarian): > 10000 nM
GI50 (DU-145 prostate): 1460 nM
TGI (DU-145 prostate): 2830 nM
GI50 (M14 melanoma): 1280 nM
TGI (M14 melanoma): 2970 nM
GI50 (CAKI-1 renal): 1180 nM
TGI (CAKI-1 renal): 2880 nM
GI50 (OVCAR-4 ovarian): 1510 nM
TGI (OVCAR-4 ovarian): 3050 nM
GI50 (UACC-257 melanoma): > 10000 nM
TGI (UACC-257 melanoma): > 10000 nM
GI50 (NCI-H226 lung): > 10000 nM
TGI (NCI-H226 lung): > 10000 nM
GI50 (TK-10 renal): 1720 nM
TGI (TK-10 renal): 3790 nM
GI50 (MCF7 breast): 1060 nM
TGI (MCF7 breast): 3040 nM
GI50 (A549 NSCLC): 1200 nM
TGI (A549 NSCLC): 4150 nM
GI50 (IGROV1 ovarian): 1480 nM
TGI (IGROV1 ovarian): 3640 nM
GI50 (OVCAR-5 ovarian): 1440 nM
TGI (OVCAR-5 ovarian): 3280 nM
GI50 (SNB-19 CNS): 1270 nM
TGI (SNB-19 CNS): 3390 nM
GI50 (OVCAR-3 ovarian): 1440 nM
TGI (OVCAR-3 ovarian): 2940 nM
GI50 (MDA-MB-231 breast): 1440 nM
TGI (MDA-MB-231 breast): 3140 nM
GI50 (MDA-MB-435): 2340 nM
TGI (MDA-MB-435): > 10000 nM
GI50 (ACHN renal): 2450 nM
TGI (ACHN renal): > 10000 nM
GI50 (UACC-62 melanoma): > 10000 nM
TGI (UACC-62 melanoma): > 10000 nM
GI50 (UO-31 renal): 3020 nM
TGI (UO-31 renal): > 10000 nM
GI50 (NCI-H460 lung): 190 nM
TGI (NCI-H460 lung): 2330 nM
